From paper PMC9230548, “Synthesis and Biological Evaluation of Novel Synthetic Indolone Derivatives as Anti-Tumor Agents Targeting p53-MDM2 and p53-MDMX” (Molecules, 2022)
Where two headings read alike, the source gives them in different places.

Assays:
MDMX = target: T1, MDMX (Homo sapiens, UniProt O15151); test: fluorescence polarization assay, MDMX binding
T1 sequence (O15151 1-490): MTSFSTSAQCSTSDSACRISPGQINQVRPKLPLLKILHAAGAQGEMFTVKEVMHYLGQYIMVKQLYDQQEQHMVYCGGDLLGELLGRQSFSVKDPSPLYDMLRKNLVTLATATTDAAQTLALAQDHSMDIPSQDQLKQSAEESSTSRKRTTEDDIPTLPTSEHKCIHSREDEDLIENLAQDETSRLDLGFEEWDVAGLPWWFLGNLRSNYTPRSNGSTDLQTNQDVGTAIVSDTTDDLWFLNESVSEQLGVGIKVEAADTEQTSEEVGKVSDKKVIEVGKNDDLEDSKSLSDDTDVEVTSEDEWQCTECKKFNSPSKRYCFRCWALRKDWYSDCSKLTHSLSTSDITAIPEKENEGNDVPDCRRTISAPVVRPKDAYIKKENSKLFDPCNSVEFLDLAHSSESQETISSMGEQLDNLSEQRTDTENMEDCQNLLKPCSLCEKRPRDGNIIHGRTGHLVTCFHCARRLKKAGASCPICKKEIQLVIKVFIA
Procedure: (§3) The MDM2 and MDMX binding evaluation for the target compounds was carried out using the fluorescence polarization assay.
(§4) Dose-dependent MDM2 and MDMX binding evaluations were carried out using the fluorescence polarization assay.
(§5) A total of 30 nM preincubated (30 min) MDM2 (or MDMX) and 10 nM PMDM-F peptide in reaction buffer (100 μL, potassium phosphate, 100 mM; bovine gamma globulin, 100 mg/mL; sodium azide, 0.02%) were added into a 96-well plate containing the tested compounds at pH 7.5.

MDM2 = MDM2 (Homo sapiens, UniProt Q00987); test: fluorescence polarization assay, MDM2 binding
Chain of MDM2 (Q00987 whole entry): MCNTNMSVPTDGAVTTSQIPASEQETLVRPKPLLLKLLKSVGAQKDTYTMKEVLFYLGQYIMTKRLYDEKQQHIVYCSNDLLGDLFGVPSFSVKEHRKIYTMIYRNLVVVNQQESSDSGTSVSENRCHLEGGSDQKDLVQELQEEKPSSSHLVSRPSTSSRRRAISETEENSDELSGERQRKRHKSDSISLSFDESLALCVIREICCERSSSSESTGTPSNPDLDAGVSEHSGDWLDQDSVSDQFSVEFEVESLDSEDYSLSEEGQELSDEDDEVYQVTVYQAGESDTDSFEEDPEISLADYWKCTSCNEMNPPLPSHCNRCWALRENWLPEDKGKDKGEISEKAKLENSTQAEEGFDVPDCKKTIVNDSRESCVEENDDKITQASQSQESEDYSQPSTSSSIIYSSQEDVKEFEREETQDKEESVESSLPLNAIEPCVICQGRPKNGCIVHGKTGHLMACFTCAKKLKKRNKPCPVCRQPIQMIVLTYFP
Procedure: as §3, §4, §5

MCF7 cell line = test: MTT assay, MCF7; type: cell-based; conditions: average of three determinations
Procedure: (§1) Compounds were tested at six concentrations (0.001–100 μM).
(§2) The cells were seeded into a 96-well plate and allowed to attach overnight, after which various concentrations of test compounds or DMSO were added to the culture medium and the cells were incubated for 48 h at 37 °C in a 5% CO2 humidified incubator. Then, 20 μL of 0.5% the fresh MTT solution was added to each well. After incubation for another 4 h, the culture medium was removed and 150 μL of DMSO was added to dissolve the formazan crystals. The absorbance at 540 nm was measured using a microplate reader. The results, expressed as IC50 values, were the average of three determinations and were calculated using nonlinear regression analysis.

A549 cell line = test: MTT assay, A549; type: cell-based; conditions: average of three determinations
Procedure: as §1, §2

HCT116 cell line = test: MTT assay, HCT116; type: cell-based; conditions: average of three determinations
Procedure: as §1, §2

[1] = test system: HCT116 cells with wild type p53; test: Western blotting of p53, MDM2 and MDMX levels; type: cell-based; conditions: HCT116 cells, 0, 5, 10 and 20 μM, 48 h, Western blot
Procedure: The dual inhibition of the p53-MDM2 and p53-MDMX interactions is expected to activate p53, increasing its level in the cells with wild-type p53. In addition, p53 activation can also result in an increase in the levels of the MDM2 and MDMX proteins. To verify these predictions, Western blotting was used to assess the effects of compound A13 in the HCT 116 cells. The cells were treated with compound A13 for 48 h. Subsequently, the cells were lysed and protein extracts were analyzed for the levels of p53, MDM2, and MDMX.
The HCT116 cells with wild type p53 were treated with compound A13 (0, 5, 10, and 20 μM) for 48 h. The cells were harvested and lysed with RIPA buffer (Sigma, St. Louis, […], USA) supplemented with a protease inhibitor cocktail (Sigma), followed by centrifugation at 12,000× g for 10 min. The supernatants were heated to 100 °C with loading buffer and the total protein concentrations were determined using a Bio-Rad protein assay. Protein samples were subjected to SDS-PAGE and transferred to a PVDF membrane. The membrane was blocked with 5% non-fat milk, and then incubated with the corresponding primary antibody (MDM2, MDMX, p53, and GAPDH) at 4 °C overnight. After binding with an appropriate secondary antibody conjugated with peroxidase, proteins were visualized using the ECL chemiluminescence system. GAPDH was used as a loading control.

[2] = read-out: Ki (μM) ± SD MDMX, fluorescence polarization, PMDM-F peptide, pH 7.5
[3] = read-out: Ki (μM) ± SD MDM2, fluorescence polarization, PMDM-F peptide, pH 7.5

Structure (SMILES)	Ki (MDMX) [µM]	Ki (MDM2) [µM]	IC50 (MCF7 cell line; Homo sapiens, MCF7, 48 h) [µM]	IC50 (A549 cell line; Homo sapiens, A549, 48 h) [µM]	IC50 (HCT116 cell line; Homo sapiens, HCT-116, 48 h) [µM]	melting point [°C]	expression of MDM2 [1]	expression of MDMX [1]	level of p53 proteins [1]	Ki (MDMX; [2]) [µM]	Ki (MDM2; [3]) [µM]	IC50 (MCF7 cell line; 48 h) [µM]	IC50 (A549 cell line; 48 h) [µM]	IC50 (HCT116 cell line; 48 h) [µM]
O=C1/C(=C/c2ccccc2Cl)c2ccccc2N1S(=O)(=O)c1cccc(Cl)c1 [Compound A6, (E)-3-(2-chlorobenzylidene)-1-((3-chlorophenyl)sulfonyl)indolin-2-one]	17.4 ± 2.78	0.92 ± 0.11	25.5 ± 3.61	18.7 ± 2.49	10.7 ± 1.47	–	–	–	–	–	–	–	–	–
O=C1/C(=C/c2cccc(Cl)c2)c2ccccc2N1S(=O)(=O)c1ccccc1Cl [Compound A12, (E)-3-(3-chlorobenzylidene)-1-((2-chlorophenyl)sulfonyl)indolin-2-one]	20.8 ± 2.01	0.19 ± 0.05	24.7 ± 2.53	17.8 ± 2.19	15.4 ± 4.61	125.1 to 126.3	–	–	–	–	–	–	–	–
O=C1/C(=C/c2cccc(Cl)c2)c2ccccc2N1S(=O)(=O)c1cccc(Cl)c1 [Compound A13, (E)-3-(3-chlorobenzylidene)-1-((3-chlorophenyl)sulfonyl)indolin-2-one]	7.24 ± 0.78	0.031 ± 0.007	11.2 ± 1.95	12.5 ± 2.01	6.17 ± 0.93	–	induced in a dose-dependent manner	induced in a dose-dependent manner	dose-dependent increase	–	–	–	–	–
O=C1/C(=C/c2cccc(Cl)c2)c2ccccc2N1S(=O)(=O)c1ccc(Cl)cc1 [Compound A14, (E)-3-(3-chlorobenzylidene)-1-((4-chlorophenyl)sulfonyl)indolin-2-one]	–	–	20.2 ± 2.86	20.3 ± 2.49	15.2 ± 3.14	137.5 to 139.6	–	–	–	18.2 ± 1.39	0.082 ± 0.021	–	–	–
O=C1/C(=C/c2cccc(Cl)c2)c2ccccc2N1S(=O)(=O)c1ccccc1Br [Compound A15]	–	–	–	–	–	–	–	–	–	24.4 ± 2.57	0.34 ± 0.12	31.1 ± 3.55	29.1 ± 3.31	23.8 ± 2.69
O=C1/C(=C/c2cccc(Cl)c2)c2ccccc2N1S(=O)(=O)c1cccc(Br)c1 [Compound A16]	–	–	–	–	–	–	–	–	–	16.2 ± 1.94	0.079 ± 0.005	26.5 ± 3.4	25.4 ± 3.62	21.7 ± 2.59
O=C1/C(=C/c2cccc(Cl)c2)c2ccccc2N1S(=O)(=O)c1ccc(Br)cc1 [Compound A17]	–	–	–	–	–	–	–	–	–	43.2 ± 4.95	0.49 ± 0.15	37.7 ± 3.65	34.2 ± 3.39	25.5 ± 3.26
O=C1/C(=C/c2cccc(Cl)c2)c2ccccc2N1S(=O)(=O)c1ccccc1F [Compound A18, (E)-3-(3-chlorobenzylidene)-1-((2-fluorophenyl)sulfonyl)indolin-2-one]	17.7 ± 2.16	0.17 ± 0.03	24.7 ± 3.63	22.6 ± 2.93	17.9 ± 2.11	–	–	–	–	–	–	–	–	–
O=C1/C(=C/c2cccc(Cl)c2)c2ccccc2N1S(=O)(=O)c1cccc(F)c1 [Compound A19, (E)-3-(3-chlorobenzylidene)-1-((3-fluorophenyl)sulfonyl)indolin-2-one]	16.9 ± 1.74	0.076 ± 0.005	21 ± 2.58	16.3 ± 1.82	10.2 ± 1.37	–	–	–	–	–	–	–	–	–
O=C1/C(=C/c2cccc(Cl)c2)c2ccccc2N1S(=O)(=O)c1ccc(F)cc1 [Compound A20, (E)-3-(3-chlorobenzylidene)-1-((4-fluorophenyl)sulfonyl)indolin-2-one]	29.2 ± 3.51	0.23 ± 0.02	27.2 ± 2.83	22.2 ± 2.13	16.3 ± 2.73	141.7 to 143.1	–	–	–	–	–	–	–	–
O=C1/C(=C/c2cccc(Cl)c2)c2ccccc2N1S(=O)(=O)c1cccc(C(F)(F)F)c1 [Compound A21, (E)-3-(3-chlorobenzylidene)-1-((3-(trifluoromethyl)phenyl)sulfonyl)indolin-2-one]	19.3 ± 2.69	0.092 ± 0.007	15.7 ± 2.04	13.5 ± 2.73	8.91 ± 1.35	–	–	–	–	–	–	–	–	–
O=C1/C(=C/c2ccc(Cl)cc2)c2ccccc2N1S(=O)(=O)c1cccc(Cl)c1 [Compound A27, (E)-3-(4-chlorobenzylidene)-1-((3-chlorophenyl)sulfonyl)indolin-2-one]	–	–	27.6 ± 3.81	20.4 ± 1.98	17.5 ± 1.53	184.8 to 185.6	–	–	–	17.3 ± 1.91	0.31 ± 0.03	–	–	–
O=C1/C(=C/c2cccc(Cl)c2)c2cc(Cl)ccc2N1S(=O)(=O)c1cccc(Cl)c1 [Compound A29, (E)-5-chloro-3-(3-chlorobenzylidene)-1-((3-chlorophenyl)sulfonyl)indolin-2-one]	–	–	27.4 ± 3.37	26.4 ± 4.05	17 ± 2.37	177.8 to 178.7	–	–	–	32.2 ± 3.24	0.28 ± 0.04	–	–	–
O=C1/C(=C/c2ccc(Cl)cc2)c2ccccc2N1C(=O)c1cccc(Cl)c1 [Compound B10, (E)-1-(3-chlorobenzoyl)-3-(4-chlorobenzylidene)indolin-2-one]	> 50	12.5 ± 1.04	–	–	–	141.3 to 142.3	–	–	–	–	–	–	–	–
COc1ccc(C2=N[C@@H](c3ccc(Cl)cc3)[C@@H](c3ccc(Cl)cc3)N2C(=O)N2CCNC(=O)C2)c(OC(C)C)c1 [Nutlin-3a, reference compound]	–	–	–	–	–	–	–	–	–	–	–	32.2 ± 1.49	21.7 ± 2.04	18.1 ± 2.17
